Data from PMC6099615, “Anti-glycation, Carbonyl Trapping and Anti-inflammatory Activities of Chrysin Derivatives” (Molecules : A Journal of Synthetic Chemistry and Natural …, 2018).
Values after ≈ are worked out from the molar mass of the structure shown. Counter-ions that a name gives are not always drawn. Like-named read-outs stand apart in the source and are kept apart here. Marks after values point to notes of the source that are not given here.

Columns and labels:
[1] = Water solubility analysis; format: physicochemical; conditions: thermodynamic from solid; distilled water, 37 °C, sonication 1 h
Description: CS and derivatives were dissolved in distilled water and incubated at 37 °C with sonication for 1 h to maximize solubility. After sonication, undissolved samples were eliminated by centrifugation (7000× g, 37 °C, 5 min). The supernatants were diluted in methanol and filtered through a 0.45 μm disposable syringe filter (Advantec, Dublin, CA, USA) to analyze the concentration of the samples using HPLC analysis.

[2] = system: AGEs cross-linking; assay: N-acetyl-glycyl-lysine-methyl ester D-ribose assay on AGE cross-linking; format: biochemical; conditions: for IC50: GK peptide-D-ribose, 37 °C, 72 h
Description: (§1) This test was used to evaluate the ability of samples to inhibit cross-linking of the GK peptide in the presence of D-ribose using the method described by Hwang et al. The GK peptide (26.7 mg/mL) was incubated with D-ribose (200 mg/mL) in sodium phosphate buffer (0.5 M, pH 7.4) containing 0.2 g/L NaN3 under sterile conditions at 37 °C for 72 h. […] All reagents and samples were sterilized by filtration through […] membrane filters. The fluorescence intensity was measured at an excitation wavelength of 355 nm and an emission wavelength of 460 nm with a Luminescence spectrometer LS50B (Perkin-Elmer Ltd., Buckinghamshire, England). AG was used as a positive control.

[3] = system: Amadori compound formation; assay: Hemoglobin-δ-gluconolactone assay of Amadori compound formation; format: biochemical; conditions: for IC50: early stage of AGE formation
[4] = system: AGE formation; assay: Bovine serum albumin-methylglyoxal assay on AGE formation; format: biochemical; conditions: for IC50: BSA-methylglyoxal, 37 °C, 48 h
Description: Bovine serum albumin (50 mg/mL) was incubated at 37 °C for 48 h with methylglyoxal (100 mM) in sodium phosphate buffer (0.1 M, pH 7.4) containing 0.2 g/L NaN3 in the presence of various concentrations of the compounds (including a control).
as §1

[5] = MGO trapping capacity by HPLC (kinetic study of MGO-conjugated adducts)
Description: […] The incubated mixture was filtered using a Microcon YM-10 centrifugal filter unit by centrifugation at 5167× g for 30 min at 4 °C. The filtrate was subsequently analyzed by high-performance liquid chromatography (HPLC) using the methods mentioned in the HPLC analysis section. The samples were then stored at −80 °C for further use.
HPLC was performed on an Agilent1100 series system equipped with a diode-array detector (DAD; Agilent, Sunnyvale, CA, USA) consisting of a vacuum degasser (G1322A), a quaternary pump (G1311A), an auto-sampler (G1313A), a thermostat column compartment (G1316A), and a DAD (G1315B). […] Sample injection volume was 10 μL. The samples were eluted with acidified water (0.1% trifluoroacetic acid, A) and MeOH (B) at a flow rate of 0.7 mL/min. The optimized gradient chromatographic conditions were 5–100% B at 0–40 min; 100–5% B at 40–42 min; and isocratic 5% B at 42–45 min. The detector monitored the eluent at a wavelength of 280 nm.

[6] = cited from earlier work
[7] = chrysin:MGO 1:0.1, incubation 1 h
[8] = chrysin:MGO 1:0.1, incubation 3 h
[9] = chrysin:MGO 1:0.1, incubation 6 h
[10] = chrysin:MGO 1:0.1, incubation 12 h
[11] = chrysin:MGO 1:0.1, incubation 36 h
[12] = chrysin:MGO 1:0.1, incubation 48 h
[13] = chrysin:MGO 1:0.5, incubation 1 h
[14] = chrysin:MGO 1:0.5, incubation 3 h
[15] = chrysin:MGO 1:0.5, incubation 6 h
[16] = chrysin:MGO 1:0.5, incubation 12 h
[17] = chrysin:MGO 1:0.5, incubation 36 h
[18] = chrysin:MGO 1:0.5, incubation 48 h
[19] = chrysin:MGO 1:1, incubation 1 h
[20] = chrysin:MGO 1:1, incubation 3 h
[21] = chrysin:MGO 1:1, incubation 6 h
[22] = chrysin:MGO 1:1, incubation 12 h
[23] = chrysin:MGO 1:1, incubation 36 h
[24] = chrysin:MGO 1:1, incubation 48 h
[25] = chrysin:MGO 1:5, incubation 1 h
[26] = chrysin:MGO 1:5, incubation 3 h
[27] = chrysin:MGO 1:5, incubation 6 h
[28] = chrysin:MGO 1:5, incubation 12 h
[29] = chrysin:MGO 1:5, incubation 36 h
[30] = chrysin:MGO 1:5, incubation 48 h
[31] = chrysin:MGO 1:10, incubation 1 h
[32] = chrysin:MGO 1:10, incubation 3 h
[33] = chrysin:MGO 1:10, incubation 6 h
[34] = chrysin:MGO 1:10, incubation 12 h
[35] = chrysin:MGO 1:10, incubation 12 h, listed as CS
[36] = chrysin:MGO 1:10, incubation 36 h
[37] = chrysin:MGO 1:10, incubation 48 h
[38] = chrysin:MGO 1:10, incubation 48 h, listed as CS
[39] = chrysin:MGO 1:10, incubation 48 h, listed as chrysin

Compound `CC(C)=CCOc1cc(O)c2c(=O)cc(-c3ccccc3)oc2c1` [7-O-Prenylchrysin, 7-O-prenylchrysin] has a solubility at 1 h [1] of 9 µM (≈ 2.9 µg/mL).

For `N=C(N)NN` [Aminoguanidine, Aminoguanidine hydrochloride, reference compound], the IC50 [2] was 1900 µM, the IC50 [3] was 110 µM and the IC50 [4] was 137 µM.

With `O=c1cc(-c2ccccc2)oc2cc(O)cc(O)c12` [Chrysin, 5,7-dihydroxyflavone] the solubility at 1 h [1] was 30 µM (≈ 7.63 µg/mL), the IC50 [2] was over 2000 µM and the “inhibitory activity against AGEs cross-linking” value ([2]; at a concentration of 10.0 mg/mL) was “no inhibitory activities”. For the same compound, the IC50 [3] was 17.4 µM, the “inhibitory activity on Amadori compound formation, fold higher than positive control AG” value ([3]; relative to Aminoguanidine hydrochloride (IC50 = 109.74 μM)) was 6.30 fold and the “HPLC area percentage of chrysin-di-MGO adduct” value [5, 7] was 0.0%. For the same compound, the “HPLC area percentage of chrysin-mono-MGO adduct” value [5, 7] was 1.7%, the “HPLC area percentage of chrysin-di-MGO adduct” value [5, 8] was 0.1% and the “HPLC area percentage of chrysin-mono-MGO adduct” value [5, 8] was 2.9%. The “HPLC area percentage of chrysin-di-MGO adduct” value [5, 9] was 0.1%, the “HPLC area percentage of chrysin-mono-MGO adduct” value [5, 9] was 4.0% and the “HPLC area percentage of chrysin-di-MGO adduct” value [5, 10] was 0.2%. For the same compound, the “HPLC area percentage of chrysin-mono-MGO adduct” value [5, 10] was 7.6%, the “HPLC area percentage of chrysin-mono-MGO adduct” value ([5]; chrysin:MGO 1:0.1, incubation 12 h, listed as CS) was 8% and the “HPLC area percentage of chrysin-di-MGO adduct” value [5, 11] was 1.1%. The “HPLC area percentage of chrysin-mono-MGO adduct” value [5, 11] was 19.9%, the “HPLC area percentage of chrysin-di-MGO adduct” value [5, 12] was 2.9% and the “HPLC area percentage of chrysin-mono-MGO adduct” value [5, 12] was 27.2%. For the same compound, the “HPLC area percentage of chrysin-di-MGO adduct” value [5, 13] was 0.0%, the “HPLC area percentage of chrysin-mono-MGO adduct” value [5, 13] was 4.1% and the “HPLC area percentage of chrysin-di-MGO adduct” value [5, 14] was 0.2%. The “HPLC area percentage of chrysin-mono-MGO adduct” value [5, 14] was 7.7%, the “HPLC area percentage of chrysin-di-MGO adduct” value [5, 15] was 0.5% and the “HPLC area percentage of chrysin-mono-MGO adduct” value [5, 15] was 13.1%. For the same compound, the “HPLC area percentage of chrysin-di-MGO adduct” value [5, 16] was 1.1%, the “HPLC area percentage of chrysin-mono-MGO adduct” value [5, 16] was 21.4% and the “HPLC area percentage of chrysin-mono-MGO adduct” value ([5]; chrysin:MGO 1:0.5, incubation 12 h, listed as CS) was 21%. For the same compound, the “HPLC area percentage of chrysin-di-MGO adduct” value [5, 17] was 4.1%, the “HPLC area percentage of chrysin-mono-MGO adduct” value [5, 17] was 36.5% and the “HPLC area percentage of chrysin-di-MGO adduct” value [5, 18] was 7.6%. For the same compound, the “HPLC area percentage of chrysin-mono-MGO adduct” value [5, 18] was 45.8%, the “HPLC area percentage of chrysin-di-MGO adduct” value [5, 19] was 0.1% and the “HPLC area percentage of chrysin-mono-MGO adduct” value [5, 19] was 5.0%. The “HPLC area percentage of chrysin-di-MGO adduct” value [5, 20] was 0.3%, the “HPLC area percentage of chrysin-mono-MGO adduct” value [5, 20] was 10.8% and the “HPLC area percentage of chrysin-di-MGO adduct” value [5, 21] was 0.7%. For the same compound, the “HPLC area percentage of chrysin-mono-MGO adduct” value [5, 21] was 18.1%, the “HPLC area percentage of chrysin-di-MGO adduct” value [5, 22] was 1.5% and the “HPLC area percentage of chrysin-mono-MGO adduct” value [5, 22] was 29.5%. The “HPLC area percentage of chrysin-mono-MGO adduct” value ([5]; chrysin:MGO 1:1, incubation 12 h, listed as CS) was 30%, the “HPLC area percentage of chrysin-di-MGO adduct” value [5, 23] was 6.4% and the “HPLC area percentage of chrysin-mono-MGO adduct” value [5, 23] was 45.1%. The “HPLC area percentage of chrysin-di-MGO adduct” value [5, 24] was 11.6%, the “HPLC area percentage of chrysin-mono-MGO adduct” value [5, 24] was 55.0% and the “HPLC area percentage of chrysin-di-MGO adduct” value [5, 25] was 0.3%. For the same compound, the “HPLC area percentage of chrysin-mono-MGO adduct” value [5, 25] was 12.4%, the “HPLC area percentage of chrysin-di-MGO adduct” value [5, 26] was 0.8% and the “HPLC area percentage of chrysin-mono-MGO adduct” value [5, 26] was 19.0%. The “HPLC area percentage of chrysin-di-MGO adduct” value [5, 27] was 1.7%, the “HPLC area percentage of chrysin-mono-MGO adduct” value [5, 27] was 26.7% and the “HPLC area percentage of chrysin-di-MGO adduct” value [5, 28] was 3.6%. For the same compound, the “HPLC area percentage of chrysin-mono-MGO adduct” value [5, 28] was 35.6%, the “HPLC area percentage of chrysin-mono-MGO adduct” value ([5]; chrysin:MGO 1:5, incubation 12 h, listed as CS) was 36% and the “HPLC area percentage of chrysin-di-MGO adduct” value [5, 29] was 15.9%. For the same compound, the “HPLC area percentage of chrysin-mono-MGO adduct” value [5, 29] was 49.1%, the “HPLC area percentage of chrysin-di-MGO adduct” value [5, 30] was 25.2% and the “HPLC area percentage of chrysin-mono-MGO adduct” value [5, 30] was 57.5%. For the same compound, the “HPLC area percentage of chrysin-di-MGO adduct” value [5, 31] was 0.5%, the “HPLC area percentage of chrysin-mono-MGO adduct” value [5, 31] was 11.9 ^a % and the “HPLC area percentage of chrysin-di-MGO adduct” value [5, 32] was 1.0%. For the same compound, the “HPLC area percentage of chrysin-mono-MGO adduct” value [5, 32] was 21.0%, the “HPLC area percentage of chrysin-di-MGO adduct” value [5, 33] was 1.9% and the “HPLC area percentage of chrysin-mono-MGO adduct” value [5, 33] was 31.9%. The “HPLC area percentage of chrysin-di-MGO adduct” value [5, 34] was 5.7%, the “HPLC area percentage of chrysin-mono-MGO adduct” value [5, 34] was 42.1% and the “HPLC area percentage of chrysin-di-MGO adduct” value [5, 35] was 6%. The “HPLC area percentage of chrysin-mono-MGO adduct” value [5, 35] was 42%, the “HPLC area percentage of chrysin-di-MGO adduct” value [5, 36] was 17.3% and the “HPLC area percentage of chrysin-mono-MGO adduct” value [5, 36] was 57.4%. For the same compound, the “HPLC area percentage of chrysin-di-MGO adduct” value [5, 37] was 29.7%, the “HPLC area percentage of chrysin-mono-MGO adduct” value [5, 37] was 63.9% and the “HPLC area percentage of chrysin-di-MGO adduct” value [5, 38] was 30%. For the same compound, the “HPLC area percentage of chrysin-mono-MGO adduct” value [5, 38] was 64%, the “HPLC area percentage of chrysin-di-MGO adduct” value [5, 39] was 29.69% and the “HPLC area percentage of chrysin-mono-MGO adduct” value [5, 39] was 63.86%. For the same compound, the “CS–di MGO adduct formation across ratios” value ([5]; ratios shown in Table 2B) was 0.2–3%, the IC50 [4] was 25 µM and the “activity against AGE formation, fold higher than AG” value ([4]; relative to AG (IC50 = 136.79 μM)) was 5.48 fold.

In the case of `C[N+](C)(C)C[C@H](O)CC(=O)[O-]` [L-carnitine], the bioavailability ([6]; oral administration) is given as 14–18%.

In the case of `CC(=O)O[C@H](CC(=O)[O-])C[N+](C)(C)C` [acetyl-L-carnitine], the bioavailability ([6]; in vivo, po) is listed as 43%.
